Assay [1] relates to MDA-MB-436 breast cancer cell line. The assay is described as follows: Cell viability assay (MDA-MB-436). It counts as cell-based. The conditions noted are these: Homo sapiens, 144 h; MDA-MB-436 cells, treated 6 days. The method, then: 2. Cell Viability Assay (MDA-MB-436)
Cell viability assay was performed by using MDA-MB-436 cell line to measure cytotoxicity of compounds in the present invention. MDA-MB-436 breast cancer cell line was seeded into 96-well plates at 37° C. under 5% CO2 atmosphere using DMEM/F12 (Gibco) containing 10% FBS (Hyclone). After 24 hr incubation, cells were treated with the invented compounds at various concentrations for 6 days. The medium was changed every 3 day. 6 days later, A fluorescence reagent was used to determine the IC50 values.

For assay [2], the system named is Capan-1 pancreatic cancer cell line. In words: Cell viability assay (Capan-1). Conditions: Homo sapiens, 240 h; Capan-1 cells, treated 10 days. It counts as cell-based. The method, then:
3. Cell Viability Assay (Capan-1)
Cell viability assay was performed by using Capan-1 cell line to measure cytotoxicity of compounds in the present invention. Capan-1 pancreatic cancer cell line was seeded into 96-well plates at 37° C. under 5% CO2 atmosphere using IMDM (Sigma) containing 10% FBS (Hyclone). After 24 hr incubation, cells were treated with the invented compounds at various concentrations for 10 days. After 7-day incubation, the medium was changed. 10 days later, A fluorescence reagent was used to determine the IC50 values.

pIC50: −log10 of the molar value. Bounds are passed on as bounds.

Turning to `CC(C#N)NC1CN(C(=O)c2cc(Cc3n[nH]c(=O)c4ccccc34)ccc2F)C1` (stereo not shown) [Compound I-100, 2-((1-(2-fluoro-5-((4-oxo-3,4-dihydrophthalazin-1-yl)methyl)benzoyl)azetidin-3-yl)amino)propanenitrile], the pIC50 in assay [1] and in assay [2] was 6.00 to 6.52 each time.

Take `CC(CO)NC1CN(C(=O)c2cc(Cc3n[nH]c(=O)c4ccccc34)ccc2F)C1` (stereo not shown) [Compound I-36, 4-(4-fluoro-3-(3-((1-hydroxypropan-2-yl)amino)azetidine-1-carbonyl)benzyl)phthalazin-1(2H)-one]: the pIC50 in assay [1] was 7.30 to 8.30; in assay [2], 6.00 to 6.52.

With `O=C(c1cc(Cc2n[nH]c(=O)c3ccccc23)ccc1F)N1CC[C@@H](NC2CCCC2)C1` [Compound I-31, (R)-4-(3-(3-(cyclopentylamino)pyrrolidine-1-carbonyl)-4-fluorobenzyl)phthalazin-1(2H)-one], the pIC50 in assay [1] was 7.30 to 8.30; in assay [2] it was 6.52 to 7.30.

In the case of `CC(C)C(C)NC1CN(C(=O)c2cc(Cc3n[nH]c(=O)c4ccccc34)ccc2F)C1` (stereo not shown) [Compound I-41, 4-(4-fluoro-3-(3-((3-methylbutan-2-yl)amino)azetidine-1-carbonyl)benzyl)phthalazin-1(2H)-one], the pIC50 was at least 8.30 in assay [1] and 6.00 to 6.52 in assay [2].

`O=C(c1cc(Cc2n[nH]c(=O)c3ccccc23)ccc1F)N1CC[C@@H](Nc2cc(C(F)(F)F)ccn2)C1` [Compound I-132, (R)-4-(4-fluoro-3-(3-((4-(trifluoromethyl)pyridin-2-yl)amino)pyrrolidine-1-carbonyl)benzyl)phthalazin-1(2H)-one]: the pIC50 in assay [1] was at least 8.30; in assay [2], 7.30 to 8.30.

As to `COC[C@H](C)NC1CN(C(=O)c2cc(Cc3n[nH]c(=O)c4ccccc34)ccc2F)C1` [Compound I-82, (S)-4-(4-fluoro-3-(3-((1-methoxypropan-2-yl)amino)azetidine-1-carbonyl)benzyl)phthalazin-1(2H)-one], the pIC50 in assay [1] was 7.30 to 8.30; in assay [2] it was 6.00 to 6.52.

Take `O=C(c1cc(Cc2n[nH]c(=O)c3ccccc23)ccc1F)N1CC(NC2CC3CCC2C3)C1` (stereo not shown) [Compound I-43, 4-(3-(3-(bicyclo[2.2.1]heptan-2-ylamino)azetidine-1-carbonyl)-4-fluorobenzyl)phthalazin-1(2H)-one]: the pIC50 in assay [1] is 7.30 to 8.30; in assay [2] it was 6.00 to 6.52.

For the compound `CCC(C)NC1CN(C(=O)c2cc(Cc3n[nH]c(=O)c4ccccc34)ccc2F)C1` (stereo not shown) [Compound I-44, 4-(3-(3-(sec-butylamino)azetidine-1-carbonyl)-4-fluorobenzyl)phthalazin-1(2H)-one], the pIC50 in assay [1] was at least 8.30; in assay [2], 6.00 to 6.52.

For the compound `CC1(C)CCCC1NC1CN(C(=O)c2cc(Cc3n[nH]c(=O)c4ccccc34)ccc2F)C1` (stereo not shown) [Compound I-38, 4-(3-(3-((2,2-dimethylcyclopentyl)amino)azetidine-1-carbonyl)-4-fluorobenzyl)phthalazin-1(2H)-one], in assay [1], the pIC50 was 7.30 to 8.30.

In assay [1], `CC(CNC1CN(C(=O)c2cc(Cc3n[nH]c(=O)c4ccccc34)ccc2F)C1)C(F)(F)F` (stereo not shown) [Compound I-50, 4-(4-fluoro-3-(3-((3,3,3-trifluoro-2-methylpropyl)amino)azetidine-1-carbonyl)benzyl)phthalazin-1(2H)-one] had a pIC50 of 6.52 to 7.30.

Turning to `COCC1(NC2CN(C(=O)c3cc(Cc4n[nH]c(=O)c5ccccc45)ccc3F)C2)CC1` [Compound I-90, 4-(4-fluoro-3-(3-((1-(methoxymethyl)cyclopropyl)amino)azetidine-1-carbonyl)benzyl)phthalazin-1(2H)-one], the pIC50 in assay [1] was 6.52 to 7.30.

Consider `CCC(CC)NC1CN(C(=O)c2cc(Cc3n[nH]c(=O)c4ccccc34)ccc2F)C1` [Compound I-40, 4-(4-fluoro-3-(3-(pentan-3-ylamino)azetidine-1-carbonyl)benzyl)phthalazin-1(2H)-one], for which the values for the negative-log IC50 (pIC50) in assay [1] and in assay [2] were 7.30 to 8.30 and 6.00 to 6.52, respectively.

In turn, `Cc1ccc(N[C@@H]2CCN(C(=O)c3cc(Cc4n[nH]c(=O)c5ccccc45)ccc3F)C2)cc1` [Compound I-138, (R)-4-(4-fluoro-3-(3-(p-tolylamino)pyrrolidine-1-carbonyl)benzyl)phthalazin-1(2H)-one] gave a pIC50 in assay [1] of 6.00 to 6.52.

Regarding `CN(C)[C@H]1CCN(C(=O)C2CN(C(=O)c3cc(Cc4n[nH]c(=O)c5ccccc45)ccc3F)C2)C1` [Compound I-24, (S)-4-(3-(3-(3-(dimethylamino)pyrrolidine-1-carbonyl)azetidine-1-carbonyl)-4-fluorobenzyl)phthalazin-1(2H)-one], in assay [1], the pIC50 is 6.00 to 6.52.

In turn, `O=C(c1cc(Cc2n[nH]c(=O)c3ccccc23)ccc1F)N1CC(CNCC2CC2)C1` [Compound I-145, 4-(3-(3-(((cyclopropylmethyl)amino)methyl)azetidine-1-carbonyl)-4-fluorobenzyl)phthalazin-1(2H)-one] had a pIC50 in assay [1] of 7.30 to 8.30.

In assay [1], `CC(C)NCC1CN(C(=O)c2cc(Cc3n[nH]c(=O)c4ccccc34)ccc2F)C1` [Compound I-144, 4-(4-fluoro-3-(3-((isopropylamino)methyl)azetidine-1-carbonyl)benzyl)phthalazin-1(2H)-one] showed a pIC50 of at least 8.30.

In turn, `O=C(c1cc(Cc2n[nH]c(=O)c3ccccc23)ccc1F)N1CC(N2CCC(F)(F)C2)C1` [Compound I-73, 4-(3-(3-(3,3-difluoropyrrolidin-1-yl)azetidine-1-carbonyl)-4-fluorobenzyl)phthalazin-1(2H)-one] had a pIC50 in assay [1] of 6.52 to 7.30.

For `O=C(c1cc(Cc2n[nH]c(=O)c3ccccc23)ccc1F)N1CC(C(=O)N2CCC(F)(F)C2)C1` [Compound I-19, 4-(3-(3-(3,3-difluoropyrrolidine-1-carbonyl)azetidine-1-carbonyl)-4-fluorobenzyl)phthalazin-1(2H)-one], in assay [1], the pIC50 is 6.52 to 7.30.

Take `CC(C)CCNC1CN(C(=O)c2cc(Cc3n[nH]c(=O)c4ccccc34)ccc2F)C1` [Compound I-52, 4-(4-fluoro-3-(3-(isopentylamino)azetidine-1-carbonyl)benzyl)phthalazin-1(2H)-one]: in assay [1], the pIC50 is at least 8.30.

`N#CC1(CNCC2CN(C(=O)c3cc(Cc4n[nH]c(=O)c5ccccc45)ccc3F)C2)CC1` [Compound I-151, 1-((((1-(2-fluoro-5-((4-oxo-3,4-dihydrophthalazin-1-yl)methyl)benzoyl)azetidin-3-yl)methyl)amino)methyl)cyclopropanecarbonitrile] showed a pIC50 in assay [1] of 6.00 to 6.52.

With `O=C(c1cc(Cc2n[nH]c(=O)c3ccccc23)ccc1F)N1CC(NC2CCCCC2)C1` [Compound I-28, 4-(3-(3-(cyclohexylamino)azetidine-1-carbonyl)-4-fluorobenzyl)phthalazin-1(2H)-one], the pIC50 in assay [1] is 7.30 to 8.30; in assay [2], 6.00 to 6.52.

Regarding `O=C(c1cc(Cc2n[nH]c(=O)c3ccccc23)ccc1F)N1CC(NCC(F)(F)F)C1` [Compound I-95, 4-(4-fluoro-3-(3-((2,2,2-trifluoroethyl)amino)azetidine-1-carbonyl)benzyl)phthalazin-1(2H)-one], in assay [1], the negative-log IC50 (pIC50) is 6.52 to 7.30.

As for `O=C(c1cc(Cc2n[nH]c(=O)c3ccccc23)ccc1F)N1CC[C@@H](NC2CC2)C1` [Compound I-29, (R)-4-(3-(3-(cyclopropylamino)pyrrolidine-1-carbonyl)-4-fluorobenzyl)phthalazin-1(2H)-one], in assay [1], the pIC50 was 6.00 to 6.52.

As to `CN(C1CCC1)C1CN(C(=O)c2cc(Cc3n[nH]c(=O)c4ccccc34)ccc2F)C1` [Compound I-71, 4-(3-(3-(cyclobutyl(methyl)amino)azetidine-1-carbonyl)-4-fluorobenzyl)phthalazin-1(2H)-one], in assay [1], the pIC50 is 6.52 to 7.30.

With `O=C(c1cc(Cc2n[nH]c(=O)c3ccccc23)ccc1F)N1CC(NCCC2CC2)C1` [Compound I-58, 4-(3-(3-((2-cyclopropylethyl)amino)azetidine-1-carbonyl)-4-fluorobenzyl)phthalazin-1(2H)-one], the pIC50 in assay [1] is 7.30 to 8.30.

Consider `N#Cc1cnc(N[C@@H]2CCN(C(=O)c3cc(Cc4n[nH]c(=O)c5ccccc45)ccc3F)C2)nc1` [Compound I-126, (R)-2-((1-(2-fluoro-5-((4-oxo-3,4-dihydrophthalazin-1-yl)methyl)benzoyl)pyrrolidin-3-yl)amino)pyrimidine-5-carbonitrile], for which the pIC50 in assay [1] was 7.30 to 8.30.

In turn, `C#CCNC1CN(C(=O)c2cc(Cc3n[nH]c(=O)c4ccccc34)ccc2F)C1` [Compound I-81, 4-(4-fluoro-3-(3-(prop-2-yn-1-ylamino)azetidine-1-carbonyl)benzyl)phthalazin-1(2H)-one] gave a pIC50 in assay [1] of 6.52 to 7.30.

Turning to `O=C(c1cc(Cc2n[nH]c(=O)c3ccccc23)ccc1F)N1CC[C@@H](Nc2ccccn2)C1` [Compound I-128, (R)-4-(4-fluoro-3-(3-(pyridin-2-ylamino)pyrrolidine-1-carbonyl)benzyl)phthalazin-1(2H)-one], in assay [1], the pIC50 is 7.30 to 8.30.

In assay [1], `O=C(c1cc(Cc2n[nH]c(=O)c3ccccc23)ccc1F)N1CC(N2CCC(F)CC2)C1` [Compound I-74, 4-(4-fluoro-3-(3-(4-fluoropiperidin-1-yl)azetidine-1-carbonyl)benzyl)phthalazin-1(2H)-one] showed a pIC50 of 7.30 to 8.30.

`CN(C1CC1)C1CN(C(=O)c2cc(Cc3n[nH]c(=O)c4ccccc34)ccc2F)C1` [Compound I-69, 4-(3-(3-(cyclopropyl(methyl)amino)azetidine-1-carbonyl)-4-fluorobenzyl)phthalazin-1(2H)-one] gave a negative-log IC50 (pIC50) in assay [1] of 6.52 to 7.30.

Usually pIC50 stands for −log10 of the IC50, conventionally taken in molar units.

These data come from patent US9844550B2, “Phtalazinone derivatives and manufacturing process thereof” (ILDONG PHARM CO., LTD., priority 2013, dated 2017).
